Experimental data published in patent publication US20100069393A1, “METHOD OF TREATMENT AND AGENTS USEFUL FOR SAME” (PRANA BIOTECHNOLOGY LIMITED, priority 2006, published 2010).

Key:
[1] = In vivo toxicity, visual observations; details: number of days
[2] = Neurotoxicity assay: MTS viability of primary cortical neuronal cultures; format: cell-based, mouse; details: BL6Jx129sv, mouse, primary cortical neuronal cultures, Neuronal cells, read-out: Cytotoxicity (% viable at 1 and 10 uM); for viability at 4 days, 1 uM: test compound 1 uM; for viability at 4 days, 10 uM: test compound 10 uM
Method: Media was then replaced with Neurobasal media (Invitrogen Life Technologies) and B27 supplements (Invitrogen Life Technologies). Cultures were maintained at 37° C. in 5% CO2. Prior to experimentation, the culture medium was replaced with Neurobasal media and B27 minus antioxidants (Invitrogen Life Technologies).
Cell viability is determined using the MTS assay. Culture medium is replaced with fresh neurobasal medium plus B27 supplements minus antioxidants. 1/10th volume MTS solution (Cell Titre 96 Aqueous One, Promega Corporation) and incubated at 37° C., 2 hrs. 200 microlitre aliquots are measured with a spectrophotometer at 560 nm.
Neuronal cortical cells were cultured for five days as per Assay 2 in NB media and B27 supplement.
On day six the test compounds were added to the neuronal cell cultures in NB media and B27 supplement minus antioxidants.
Test compounds were dissolved in 100% DMSO to a concentration of 2.5 mM (10 mM if excess compound was weighed out per vial—then diluted to 2.5 mM). […] Test compounds were not added directly to cells, instead they were added to a 48 well ‘Drug Plate’ as comprised below:
The Drug Plate was incubated at 37° C. for 15 mins. 200 μl of each well was added in triplicate to the corresponding cell plate. The cell plate was incubated at 37 C, for 4 days.
On completion of the assay, 1/10 volume MTS was added per well of plate (i.e. 25 μl/250 μl). The plates were incubated at 37 C for 2 hrs, and then absorbance was read at 560 nm.

[3] = Mice plasma concentration; format: in vivo; details: for Mice plasma concentration (single dose): one or two time points (between 30 min and 4 h); for Mice plasma concentration: presence in plasma at one or two time points (between 30 min and 4 h)
[4] = Cytotoxicity: viability of M17 cells; details: human, M17 neuroblastoma cells, Cytotoxicity (% viable at 1 and 10 uM); for viability at 1 uM: test compound 1 uM; for viability at 10 uM: test compound 10 uM

| Mice plasma concentration (single dose) [3] | Mice plasma concentration [3] | SMILES | Toxicity at 30 mg/kg [1] | viability at 4 days, 1 uM [2] [%] | viability at 4 days, 10 uM [2] [%] | viability at 1 uM [4] [%] | viability at 10 uM [4] [%] | Toxicity at 10 mg/kg ([1]; 10 mg/kg) |
| --- | --- | --- | --- | --- | --- | --- | --- | --- |
| Up to 262 ng/mL in mice (single dose) |  | CN1CCCC1CCn1cnc2c(O)c(Cl)cc(Cl)c2c1=O (centres unmarked) | 10 days, none | 105 | 94 |  |  |  |
|  |  | Cc1cnc(-n2cnc3c(O)c(Cl)cc(Cl)c3c2=O)s1 | 10 days, mild signs | 94 | 70 |  |  |  |
|  | Up to 207 ng/mL | CN1CCN(n2cnc3c(O)c(Cl)cc(Cl)c3c2=O)CC1 | 10 days, none | 96 | 91 |  |  |  |
|  | Up to 439 ng/mL | Br.Cc1cccnc1Cn1cnc2c(O)c(Cl)cc(Cl)c2c1=O | 10 days, 3/4 mild signs | 99 | 88 |  |  |  |
|  |  | CCCCc1cnc2c(O)cccn2c1=O | 10 days, none |  |  | 73.6 | 37 |  |
|  |  | O=c1c2ccc(I)c(O)c2ncn1-c1ccc(F)cc1F | 6 days, 2/4 deaths |  |  | 90.3 | 80.3 |  |
|  |  | Nc1cc(Cn2cnc3c(O)c(Cl)cc(Cl)c3c2=O)ccn1 | 10 days, 1 of 4 deaths |  |  | 95.1 | 93.9 |  |
|  | Up to 4060 ng/mL | CCCn1cnc2c(O)c(I)cc(Cl)c2c1=O |  |  |  | 120 | 100 |  |
| Up to 125.5 ng/mL (Single dose) |  | CCNC(=O)c1cnc2c(O)c(CC)ncc2c1.Cl |  |  |  | 84.4 | 92.1 |  |
|  | Up to 59 ng/mL | O=c1c2c(Cl)cc(Cl)c(O)c2ncn1CCc1ccccn1 | 10 days, none | 100 | 92 |  |  |  |
|  |  | O=C(NCc1ccc(F)cc1)c1cnc2c(O)c(I)ccn2c1=O | 7 days, 4/4 deaths |  |  | 89.6 | 23.4 |  |
| Up to 80 ng/mL (single dose) |  | COc1ccc(-n2cnc3c(O)c(Cl)cc(Cl)c3c2=O)nc1 | 10 days, none | 122 | 93 |  |  |  |
|  |  | O=c1c2c(Cl)cc(Cl)c(O)c2ncn1N1CCCC1 | 10 days, none | 101 | 88 |  |  |  |
|  | Up to 2694 ng/mL | O=C(NCCc1c[nH]cn1)c1ccc2c(Cl)cc(Cl)c(O)c2n1 |  | 91 | 84 |  |  |  |
|  |  | O=c1c2c(Cl)cc(Cl)c(O)c2ncn1-c1ccc(Cl)cn1 | 10 days, none | 94 | 58 | 86.9 | 70.5 |  |
|  |  | O=C1NC(=O)c2cc(-n3cnc4c(O)c(Cl)cc(Cl)c4c3=O)ccc21 | 10 days, none |  |  | 85.4 | 93.3 |  |
| Up to 350 ng/mL (single dose) |  | Oc1c(C2CC2)ncc2cccnc12 | 6 days, none | 100 | 98 |  |  |  |
|  |  | CCn1cnc2c(O)c(Cl)cc(Cl)c2c1=O |  | 93 | 58 | 104 | 95.9 |  |
|  |  | O=c1c2c(Cl)cc(I)c(O)c2ncn1CC1CC1 |  |  |  | 97.9 | 82.3 | At 10 mg/kg: 10 days, none |
|  |  | CN(C)Cc1ccc2c(Cl)cc(I)c(O)c2n1 | 1 day, 3/4 deaths |  |  | 97.9 | 24.4 |  |
|  |  | O=c1c(-c2ccc(Cl)cc2)cnc2c(O)cccn12 |  | 97 | 42 | 41.2 | 25.8 |  |
|  | Up to 1000 ng/mL | CN(C)Cc1cnc2c(Cl)cc(Cl)c(O)c2n1.Cl |  | 106 | 93 |  |  |  |
|  | Up to 39 ng/mL | Cc1ccc(-n2cnc3c(O)c(Cl)cc(Cl)c3c2=O)nc1 | 10 days, none | 96 | 83 |  |  |  |
